Columns and labels:
Format in all cases: in vivo
[1] = system: giant foxtail (Setaria faberii); assay: Test A postemergence; conditions: Setaria faberi, post-emergence, 240 h, read-out: Plant response rating, Foxtail, Giant
How it was run: (§1)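 Preemergence soil spray on seeded pots or post-emergence spray on 1–2 leaf plants, in loam–sand blend. Greenhouse ~10 d. Visual rating 0–100 against untreated plants.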

[2] = system: ragweed (common ragweed, Ambrosia elatior); assay: Test A postemergence; conditions: Ambrosia artemisiifolia, post-emergence, 240 h, read-out: Plant response rating, Ragweed
How it was run: as §1

[3] = system: blackgrass (Alopecurus myosuroides); assay: Test A postemergence; conditions: Alopecurus myosuroides, post-emergence, 240 h, read-out: Plant response rating, Blackgrass
How it was run: as §1

[4] = system: barnyardgrass (Echinochloa crus-galli); assay: Test A postemergence; conditions: Echinochloa crus-galli, post-emergence, 240 h, read-out: Plant response rating, Barnyardgrass
How it was run: as §1

[5] = system: ryegrass, Italian (Italian ryegrass, Lolium multiflorum); assay: Test A postemergence; conditions: Lolium multiflorum, post-emergence, 240 h, read-out: Plant response rating, Ryegrass, Italian
How it was run: as §1

[6] = system: corn (Zea mays); assay: Test A postemergence; conditions: Zea mays, post-emergence, 240 h
How it was run: as §1

[7] = system: Galium (catchweed bedstraw, Galium aparine); assay: Test A postemergence; conditions: Galium, post-emergence, 240 h, read-out: Plant response rating, Galium
How it was run: as §1

[8] = system: wheat (Triticum aestivum); assay: Test A postemergence; conditions: Triticum aestivum, post-emergence, 240 h, read-out: Plant response rating, Wheat
How it was run: as §1

[9] = system: Kochia (Kochia scoparia); assay: Test A postemergence; conditions: Bassia scoparia, post-emergence, 240 h, read-out: Plant response rating, Kochia
How it was run: as §1

[10] = system: pigweed (Amaranthus retroflexus); assay: Test A postemergence; conditions: Amaranthus retroflexus, post-emergence, 240 h, read-out: Plant response rating, Pigweed
How it was run: as §1

[11] = system: sedge, umbrella (small-flower umbrella sedge, Cyperus difformis); assay: Test B flooded paddy test; conditions: Cyperus difformis, 250 g ai/ha, Flood; 0 to 100 scale where 0 is no effect and 100 is complete control; read-out: Sedge, Umbrella plant response rating
How it was run: (§2)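 Rating scale 0–100 (visual, vs untreated controls) after a 13–15 d greenhouse period; application to the flood layer, 3 cm above soil and maintained; plants at 2-leaf stage when treated.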

[12] = system: barnyardgrass (Echinochloa crus-galli); assay: Test B flooded paddy test; conditions: Echinochloa crus-galli, 250 g ai/ha, Flood; 0 to 100 scale where 0 is no effect and 100 is complete control; read-out: Barnyardgrass plant response rating
How it was run: as §2

[13] = system: ducksalad (Heteranthera limosa); assay: Test B flooded paddy test; conditions: Heteranthera limosa, 250 g ai/ha, Flood; 0 to 100 scale where 0 is no effect and 100 is complete control; read-out: Ducksalad plant response rating
How it was run: as §2

[14] = system: rice (Oryra sativa); assay: Test B flooded paddy test; conditions: Oryza sativa, 250 g ai/ha, Flood; 0 to 100 scale where 0 is no effect and 100 is complete control; read-out: Rice plant response rating
How it was run: as §2

[15] = system: giant foxtail (Setaria faberii); assay: Test A preemergence; conditions: Setaria faberi, pre-emergence, 240 h
How it was run: as §1

[16] = system: ragweed (common ragweed, Ambrosia elatior); assay: Test A preemergence; conditions: Ambrosia artemisiifolia, pre-emergence, 240 h
How it was run: as §1

[17] = system: barnyardgrass (Echinochloa crus-galli); assay: Test A preemergence; conditions: Echinochloa crus-galli, pre-emergence, 240 h
How it was run: as §1

[18] = system: ryegrass, Italian (Italian ryegrass, Lolium multiflorum); assay: Test A preemergence; conditions: Lolium multiflorum, pre-emergence, 240 h
How it was run: as §1

[19] = system: Kochia (Kochia scoparia); assay: Test A preemergence; conditions: Bassia scoparia, pre-emergence, 240 h
How it was run: as §1

[20] = system: pigweed (Amaranthus retroflexus); assay: Test A preemergence; conditions: Amaranthus retroflexus, pre-emergence, 240 h
[21] = 125 g ai/ha, Postemergence, visual injury after approximately 10 d, 0 to 100 scale where 0 is no effect and 100 is complete control
[22] = 500 g ai/ha, postemergence, visual injury, 0 to 100 scale (0 no effect, 100 complete control), approx. 10 d

Q: `CSc1ccccc1NC(=O)[C@H]1C(=O)N(C)C[C@@H]1c1cc(C)c(Br)c(C)c1` [Compound 1025] was tested. Which pest or weed control at 125 g/ha [1, 21] did it give?
A: Its pest or weed control at 125 g/ha is 60%.

Q: What about the pest or weed control at 500 g/ha [1, 22] of the same compound?
A: The pest or weed control at 500 g/ha was 60%.

Q: What about the pest or weed control at 125 g/ha [2, 21] of the same compound?
A: Its pest or weed control at 125 g/ha is 0%.

Q: What about the pest or weed control at 500 g/ha [2, 22] of the same compound?
A: Its pest or weed control at 500 g/ha is 0%.

Q: What about the pest or weed control at 125 g/ha [3, 21] of the same compound?
A: The pest or weed control at 125 g/ha was 0%.

Q: And the pest or weed control at 500 g/ha [3, 22]?
A: The pest or weed control at 500 g/ha was 0%.

Q: And the pest or weed control at 125 g/ha [4, 21]?
A: The pest or weed control at 125 g/ha was 60%.

Q: What about the pest or weed control at 500 g/ha [4, 22] of the same compound?
A: Its pest or weed control at 500 g/ha is 70%.

Q: What about the pest or weed control at 125 g/ha [5, 21] of the same compound?
A: Its pest or weed control at 125 g/ha is 0%.

Q: What about the pest or weed control at 500 g/ha [5, 22] of the same compound?
A: Its pest or weed control at 500 g/ha is 30%.

Q: What about the Corn plant response rating (crop injury, 0 = no effect, 100 = complete kill) at 125 g/ha [6, 21] of the same compound?
A: The Corn plant response rating (crop injury, 0 = no effect, 100 = complete kill) at 125 g/ha was 0%.

Q: What about the Corn plant response rating (crop injury, 0 = no effect, 100 = complete kill) at 500 g/ha [6, 22] of the same compound?
A: The Corn plant response rating (crop injury, 0 = no effect, 100 = complete kill) at 500 g/ha was 20%.

Q: And the pest or weed control at 125 g/ha [7, 21]?
A: Its pest or weed control at 125 g/ha is 30%.

Q: And the pest or weed control at 500 g/ha [7, 22]?
A: The pest or weed control at 500 g/ha was 30%.

Q: What about the plant injury at 125 g/ha [8, 21] of the same compound?
A: Its plant injury at 125 g/ha is 0%.

Q: What about the plant injury at 500 g/ha [8, 22] of the same compound?
A: Its plant injury at 500 g/ha is 0%.

Q: What about the pest or weed control at 125 g/ha [9, 21] of the same compound?
A: The pest or weed control at 125 g/ha was 30%.

Q: What about the pest or weed control at 500 g/ha [9, 22] of the same compound?
A: The pest or weed control at 500 g/ha was 50%.

Q: And the pest or weed control at 125 g/ha [10, 21]?
A: The pest or weed control at 125 g/ha was 0%.

Q: What about the pest or weed control at 500 g/ha [10, 22] of the same compound?
A: The pest or weed control at 500 g/ha was 30%.

Q: And the pest or weed control at 250 g/ha [11]?
A: Its pest or weed control at 250 g/ha is 0%.

Q: What about the pest or weed control at 250 g/ha [12] of the same compound?
A: The pest or weed control at 250 g/ha was 0%.

Q: What about the pest or weed control at 250 g/ha [13] of the same compound?
A: Its pest or weed control at 250 g/ha is 0%.

Q: And the pest or weed control at 250 g/ha [14]?
A: Its pest or weed control at 250 g/ha is 0%.

Q: And the pest or weed control at 125 g/ha ([15]; 125 g ai/ha, Preemergence, visual injury rating after approximately 10 d, read-out: Foxtail, Giant plant response rating (0 to 100 scale, 0 is no effect, 100 is complete control))?
A: Its pest or weed control at 125 g/ha is 90%.

Q: And the pest or weed control at 500 g/ha ([15]; 500 g ai/ha, preemergence, visual injury rating about 10 d after treatment, 0 to 100 scale (0 no effect, 100 complete control), read-out: Foxtail, Giant plant response rating)?
A: Its pest or weed control at 500 g/ha is 90%.

Q: And the pest or weed control at 125 g/ha ([16]; 125 g ai/ha, Preemergence, visual injury rating after approximately 10 d, read-out: Ragweed plant response rating (0 to 100 scale, 0 is no effect, 100 is complete control))?
A: The pest or weed control at 125 g/ha was 0%.

Q: And the pest or weed control at 500 g/ha ([16]; 500 g ai/ha, preemergence, visual injury rating about 10 d after treatment, 0 to 100 scale (0 no effect, 100 complete control), read-out: Ragweed plant response rating)?
A: The pest or weed control at 500 g/ha was 0%.

Q: What about the pest or weed control at 125 g/ha ([17]; 125 g ai/ha, Preemergence, visual injury rating after approximately 10 d, read-out: Barnyardgrass plant response rating (0 to 100 scale, 0 is no effect, 100 is complete control)) of the same compound?
A: The pest or weed control at 125 g/ha was 70%.

Q: And the pest or weed control at 500 g/ha ([17]; 500 g ai/ha, preemergence, visual injury rating about 10 d after treatment, 0 to 100 scale (0 no effect, 100 complete control), read-out: Barnyardgrass plant response rating)?
A: Its pest or weed control at 500 g/ha is 70%.

Q: What about the pest or weed control at 125 g/ha ([18]; 125 g ai/ha, Preemergence, visual injury rating after approximately 10 d, read-out: Ryegrass, Italian plant response rating (0 to 100 scale, 0 is no effect, 100 is complete control)) of the same compound?
A: The pest or weed control at 125 g/ha was 0%.

Q: And the pest or weed control at 500 g/ha ([18]; 500 g ai/ha, preemergence, visual injury rating about 10 d after treatment, 0 to 100 scale (0 no effect, 100 complete control), read-out: Ryegrass, Italian plant response rating)?
A: The pest or weed control at 500 g/ha was 30%.

Q: What about the pest or weed control at 125 g/ha ([19]; 125 g ai/ha, Preemergence, visual injury rating after approximately 10 d, read-out: Kochia plant response rating (0 to 100 scale, 0 is no effect, 100 is complete control)) of the same compound?
A: The pest or weed control at 125 g/ha was 0%.

Q: And the pest or weed control at 500 g/ha ([19]; 500 g ai/ha, preemergence, visual injury rating about 10 d after treatment, 0 to 100 scale (0 no effect, 100 complete control), read-out: Kochia plant response rating)?
A: The pest or weed control at 500 g/ha was 20%.

Q: What about the pest or weed control at 125 g/ha ([20]; 125 g ai/ha, Preemergence, visual injury rating after approximately 10 d, read-out: Pigweed plant response rating (0 to 100 scale, 0 is no effect, 100 is complete control)) of the same compound?
A: The pest or weed control at 125 g/ha was 0%.

Q: What about the pest or weed control at 500 g/ha ([20]; 500 g ai/ha, preemergence, visual injury rating about 10 d after treatment, 0 to 100 scale (0 no effect, 100 complete control), read-out: Pigweed plant response rating) of the same compound?
A: Its pest or weed control at 500 g/ha is 50%.
